Where two headings read alike, the source gives them in different places.
What was measured:
[1] = tested on: Peripheral Neuropathy in a Mouse Caused by Vincristine; assay type: in vivo, Balb/c mice
Excerpt: (§1) Six to seven-week-old female Balb/c mice were used for the tests. All the mice were acclimated for seven days after arrival. Then, the mice were grouped into the following four groups: a control group, a group receiving vincristine, a group receiving xylitol, and a group receiving vincristine and xylitol (a group receiving vincristine+xylitol). Each group consisted of five mice.
(§2) On Day 8 of acclimation, the mice in the group receiving vincristine and the group receiving vincristine+xylitol were intraperitoneally administered with vincristine at a dose of 0.2 mg/kg. This day was designated as Day 0 of administration. Thereafter, these mice were intraperitoneally administered with vincristine at a daily dose of 0.2 mg/kg on Day 7 and Day 14.
(§3) The mice in the group receiving xylitol and the group receiving vincristine+xylitol were orally administered with xylitol at a dose of 5 mg/kg daily from Day 0.
(§4) A cold plate test was performed to examine the effect of xylitol on paresthesia that is caused by a low temperature stimulus. The mice in the four groups described in (7) of the present example (Example 1) were placed on a cold plate set at 10° C., and withdrawal response time (latent time) was measured. It is presumed that a shorter latent time reflects a greater degree of shunning the low temperature stimulus by the cold plate.
as §1, with “tests as with Example 1.” for “tests.”
On Day 8 of acclimation, the mice in the group receiving vincristine and the group receiving vincristine+xylitol were intraperitoneally administered with vincristine at a dose of 0.2 mg/kg. This day was designated as the first day of the administration (Day 0). Thereafter, these mice were intraperitoneally administered with vincristine at the same dose on Day 7 and Day 14 for a total of 3 doses.
The mice in the group receiving 100 mg/kg xylitol were orally administered with xylitol at a dose of 100 mg/kg daily from Day 0. The mice in the group receiving vincristine+100 mg/kg xylitol were orally administered with xylitol at a dose of 100 mg/kg daily from Day 6 of administration.
as §4, with “A” for “A cold plate”, “performed on the mice in the four groups described in (9) of the present example (Example 2)” for “performed”, “respective” for “the four”, “groups” for “groups described in (7) of the present example (Example 1)”
as §1, with “tests as with Example 1.” for “tests.”, “D-threitol,” for “xylitol,”, “D-threitol” for “xylitol”, “vincristine+D-threitol).” for “vincristine+xylitol).”
as §2, with “vincristine+D-threitol” for “vincristine+xylitol”
The mice in the group receiving D-threitol and the group receiving vincristine+D-threitol were orally administered with D-threitol at a dose of 5 mg/kg daily from Day 0.
A cold plate test was performed to examine the effect of D-threitol on paresthesia that is caused by a low temperature stimulus. […]

[2] = tested on: Peripheral Neuropathy in a Mouse Caused by Vincristine; assay type: in vivo, Balb/c mice; conditions: 0.2 mg/kg vincristine + 100 mg/kg orally daily from Day 6 (therapy); from Day 12 onwards
Excerpt: as §1, §2, §3
The mice in the four groups described in (7) of the present example (Example 1) were placed in a cage, and the avoidance response frequency (score) was measured by pressing a filament with a bending force of 0.16 g against the back of the hind paw.
as §1, with “tests as with Example 1.” for “tests.”, “mice. […]” for “mice.”
For the mice in the four groups described in (9) of the present example (Example 2), the avoidance response frequency (score) was measured by pressing a filament with a bending force of 0.16 g against the back of the hind paw. […]
The mice in the four groups described in (7) of the present example (Example 3) were placed in a cage, and the avoidance response frequency (score) was measured by pressing a filament with a bending force of 0.16 g against the back of the hind paw. […]

[3] = 0.2 mg/kg vincristine + 5 mg/kg test substance orally daily from Day 0 (prevention)
[4] = 0.2 mg/kg vincristine + 100 mg/kg orally daily from Day 6, on Day 12, vs group receiving 0.2 mg/kg vincristine

## OC[C@@H](O)[C@H](O)CO [D-threitol]
[1]; [3]
  withdrawal response time (latent time): approximately similar to that of the control group
[1]; 0.2 mg/kg vincristine + 100 mg/kg orally daily from Day 6 (therapy), time course after Day 6
  withdrawal response time (latent time): significantly longer withdrawal response time
[1]; [4]
  withdrawal response time (latent time): significantly longer withdrawal response time
[2]
  avoidance response score: maintained a score clearly lower than that of the group receiving vincristine

## OC[C@H](O)[C@H](O)[C@H](O)[C@@H](O)CO [L-talitol]
[1]; [3]
  withdrawal response time (latent time): approximately similar to that of the control group
[1]; [4]
  withdrawal response time (latent time): significantly longer withdrawal response time
[2]
  avoidance response score: maintained a score clearly lower than that of the group receiving vincristine

## OC[C@@H](O)[C@H](O)[C@@H](O)CO [xylitol]
[1]; [3]
  withdrawal response time (latent time): approximately similar to that of the control group
[1]; [4]
  withdrawal response time (latent time): significantly longer withdrawal response time
[2]
  avoidance response score: maintained a score clearly lower than that of the group receiving vincristine

From patent publication US20240099989A1, “AGENT FOR PREVENTING OR IMPROVING PERIPHERAL NEUROPATHY” (KINKI UNIVERSITY, priority 2021, published 2024)
